Test results: US10793543B2, “Selective C-KIT kinase inhibitor” (PRECEDO PHARMACEUTICALS CO., LTD, priority 2016, dated 2020)

Assays:
[1] = tested on: Tel-cKit/V654A-BaF3 cells (KIT V654A); assay: Cell proliferation, CCK-8, Tel-cKit/V654A-BaF3; type: cell-based; settings: Mus musculus, 72 hours
Text: (§1) In addition, in the present example, further uses: mouse P210/BaF3 (stably expressing P210 Bcr-Abl mutant gene), mouse Tel-ABL-BaF3 (stably expressing wild-type ABL kinase), mouse Tel-cKit-BaF3 (stably expressing C-KITwild-type kinase), mouse Tel-cKit/V559D-BaF3 (stably expressing C-KIT V559D mutant kinase), mouse Tel-cKit/V559D/V654A-BaF3 (stably expressing C-KIT V559D/V654A mutant kinase), mouse Tel-cKit/N822K-BaF3 (stably expressing C-KIT N822K mutant kinase), mouse Tel-cKit/V654A-BaF3 (stably expressing C-KIT V654A mutant kinase), mouse Tel-cKit/L567P-BaF3 (stably expressing C-KIT L567P mutant kinase), mouse Tel-cKit/T670I-BaF3 (stably expressing C-KIT T670I mutant kinase), mouse Tel-PDGFRα-BaF3 (stably expressing PDGFRα kinase), mouse Tel-PDGFRβ-BaF3 (stably expressing PDGFRβ kinase), mouse Tel-VEGFR2-BaF3 (stably expressing VEGFR2 kinase), mouse Tel-RET-BaF3 (stably expressing RET kinase). The above cell lines were all constructed by our laboratory according to the following method: the kinase region sequences of human P210 Bcr-Abl, ABL, C-KIT, C-KIT V559D, C-KIT V559D/V654A, C-KIT N822K, C-KIT V654A, C-KIT L567P, C-KIT T670I, PDGFRα, PDGFRβ, VEGFR2, RET were amplified respectively by PCR, inserted respectively into MSCV-Puro vectors harboring N-terminal TEL fragment and/or NPM fragment and/or TPR fragment (Clontech), then the vectors were stably transfected into mouse BaF3 cells by retrovirus methods and growth factor IL-3 was removed, eventually obtaining cell lines that are transferred protein (P210 Bcr-Abl, ABL, C-KIT, C-KIT V559D, C-KIT V559D/V654A, C-KIT N822K, C-KIT V654A, C-KIT L567P, C-KIT T670I, PDGFRα, PDGFRβ, VEGFR2, RET)-dependent.
(§2) The cells were incubated for 72 hours, and then the number of viable cells was quantified with a microplate reader by using CCK-8 Cell Viability Assay Kit (purchased from Bestbio Company, Shanghai, China) (CCK-8 can be reduced by dehydrogenase in living cells to a highly water-soluble yellow formazan product, and the amount of formazan produced is proportional to the number of living cells).

[2] = target: T1, protein kinase C-KIT (Homo sapiens, UniProt P10721); assay: In vitro enzyme activity assay (ADP-Glo); type: biochemical; settings: purified C-KIT kinase domain, ATP 10 μM
T1 construct: The kinase domain of protein kinase C-KIT was cloned into the insect expression vector pFASTHTA; His tag; made in house; host or cells: SF9 insect cells (Bac-to-Bac baculovirus system)
Experimental: The IC50 value of Compound 4 against protein kinase C-KIT was determined in an in vitro enzyme activity assay. The kinase domain of protein kinase C-KIT was cloned into the insect expression vector pFASTHTA (purchased from Invitrogen life technologies), and the protein with His tag was expressed using the insect expression system Bac-to-Bac Baculovirus Expression System (purchased from Invitrogen life technologies). The constructed vector was transfected into SF9 packaging virus (purchased from Invitrogen life technologies), and the virus was used to infect SF9 to express the protein. Purification was performed using affinity chromatography.
9 μL (6 ng/μL) of purified C-KIT protein kinase was reacted with 1 μL of the above Compound 4 with 3× gradient dilution (the final concentrations of the drug were 10 μM, 3 μM, 1 μM, 0.3 μM, 0.1 μM, 0.03 μM, 0.01 μM, 0.003 μM) at room temperature for 4 hours;
2 μL of ATP and 3 μL of substrate, Poly(4:1 Glu, Tyr)Peptide (Promega, US), were added (final concentrations were 10 μM and 0.2 μg/μL, respectively), and reacted at 37° C. for 1 hour; […]
10 μL of kinase detection reagent was added to transfer ADP into ATP, and the newly synthesized ATP was detected by using coupled luciferase/fluorescein reaction, then the IC50 values were calculated by using a plotting method based on the Envision reading.

[3] = tested on: Tel-cKit/L576P-BaF3 cells (KIT L576P); assay: Cell proliferation, CCK-8, Tel-cKit/L576P-BaF3; type: cell-based; settings: Mus musculus, 72 hours
Text: as §1, §2

[4] = tested on: K562 cells (P210 Bcr-Abl); assay: Cancer cell proliferation, CCK-8, K562; type: cell-based; settings: Homo sapiens; K562, P210 Bcr-Abl, 72 hours, CCK-8; read-out: GI50
Text: (§3) In the present example, the following cells were used: chronic myelogenous leukemia cells K562 (expressing P210 Bcr-Abl mutant gene), human megakaryocytic leukemia cells MEG-01 (expressing P210 Bcr-Abl mutant gene), human peripheral blood basophilic leukemia cells Ku812 (expressing Bcr-Abl mutant gene) (all above cells purchased from ATCC, USA), human gastrointestinal stromal tumor cell lines GIST-T1 cells (expressing wild-type C-KIT gene) (purchased from Cosmo Bio Co., Ltd., Japan), human gastrointestinal stromal tumor cell lines GIST-882 cells (expressing wild-type C-KIT gene) (presented by the Professor Gray Lab, Dana-Farber Cancer Institute, Harvard University, USA), mouse pro-B cells BaF3 (purchased from ATCC, USA).
as §2

[5] = tested on: phosphorylation of Bcr-Abl kinase and pathway proteins in K562 cells; assay: Effects on cell signaling pathways (phosphorylation), K562; type: cell-based, human; settings: K562, concentration up to 3 μM, 2 hours
[6] = tested on: Tel-cKit/V559D/V654A-BaF3 cells (KIT V559D/V654A); assay: Cell proliferation, CCK-8, Tel-cKit/V559D/V654A-BaF3; type: cell-based; settings: Mus musculus, 72 hours
Text: as §1, §2

[7] = tested on: Tel-VEGFR2-BaF3 cells (VEGFR2); assay: Cell proliferation, CCK-8, Tel-VEGFR2-BaF3; type: cell-based; settings: Mus musculus, Tel-VEGFR2-BaF3, VEGFR2, 72 hours
Text: as §1, §2

[8] = tested on: Tel-RET-BaF3 cells (RET WT); assay: Cell proliferation, CCK-8, Tel-RET-BaF3; type: cell-based; settings: Mus musculus, 72 hours
Text: as §1, §2

[9] = tested on: Tel-cKit/N822K-BaF3 cells (KIT N822K); assay: Cell proliferation, CCK-8, Tel-cKit/N822K-BaF3; type: cell-based; settings: Mus musculus, 72 hours
Text: as §1, §2

[10] = tested on: GIST-T1 cells; assay: Cancer cell proliferation, CCK-8, GIST-T1; type: cell-based; settings: Homo sapiens, GISTT1, GIST-T1, KIT WT, 72 hours
Text: as §3, §2

T1 sequence (P10721 589-937 limits assumed): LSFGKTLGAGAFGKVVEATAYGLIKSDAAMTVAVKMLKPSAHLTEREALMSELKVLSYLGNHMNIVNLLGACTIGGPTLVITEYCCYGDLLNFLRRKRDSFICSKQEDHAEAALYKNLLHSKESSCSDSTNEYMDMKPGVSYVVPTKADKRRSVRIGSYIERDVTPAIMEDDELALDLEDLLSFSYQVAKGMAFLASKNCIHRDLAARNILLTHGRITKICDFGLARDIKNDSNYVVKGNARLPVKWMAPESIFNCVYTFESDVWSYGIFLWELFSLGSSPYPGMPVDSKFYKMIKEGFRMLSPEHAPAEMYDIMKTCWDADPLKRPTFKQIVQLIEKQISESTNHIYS

Cc1ccc(NC(=O)c2cccc(C(F)(F)F)c2)cc1OC1CCN(C(=O)c2ccncc2)CC1 [Compound 4]
GI50 [1]: 1030 nM | IC50 [2]: 99 nM | GI50 [3]: 148 nM | GI50 [4]: > 10000 nM | phosphorylation of Bcr-Abl kinase [5]: no effect | phosphorylation of proteins such as AKT, ErK [5]: no effect | GI50 [6]: 1050 nM | GI50 [7]: 347 nM | GI50 [8]: 590 nM | GI50 [9]: 940 nM | GI50 [10]: 21 nM
